Reference: PMC6207338 (Nature medicine, 2018)
Positions count from the first letter of the chain named. Where two headings read alike, the source gives them in different places. Each block holds one molecule with its values, some of them ahead of it.

How the values were obtained:
glucose production = details: i.v. infusion; cited from earlier work
AMPK = AMPK activation in tissue by Western blotting / kinase assay; type: in vivo, mouse
[1] = test system: FBP1^WT/WT (WT) and FBP1^G27P/G27P (KI) mice; assay: AICAR tolerance in mice; type: in vivo, mouse; details: 250 mg.kg^-1 i.p.
[2] = test system: gastrocnemius (GAS) muscle; assay: Skeletal muscle adenine/Z nucleotides after AICAR; type: in vivo, mouse; details: following AICAR treatment
mouse FBP1 Y114F = target: T1, mouse FBP1 Y114F (Mus musculus, UniProt Q9QXD6, Y114F); assay: FBPase coupled assay, mouse FBP1 Y114F; type: biochemical; details: untagged Y114F, data not shown
T1 sequence (Q9QXD6 1-338 Y114F): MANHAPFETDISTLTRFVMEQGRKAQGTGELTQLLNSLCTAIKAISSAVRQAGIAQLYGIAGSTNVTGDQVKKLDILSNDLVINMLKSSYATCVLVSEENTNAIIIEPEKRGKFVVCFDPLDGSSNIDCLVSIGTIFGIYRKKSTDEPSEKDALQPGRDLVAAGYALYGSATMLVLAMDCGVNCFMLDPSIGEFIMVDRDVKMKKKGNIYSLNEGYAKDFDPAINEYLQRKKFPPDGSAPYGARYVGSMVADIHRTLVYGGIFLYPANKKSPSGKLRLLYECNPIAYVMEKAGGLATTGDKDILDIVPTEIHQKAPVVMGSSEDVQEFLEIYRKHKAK

mouse FBP1 (WT) = target: T2, mouse FBP1 (WT) (Mus musculus, UniProt Q9QXD6); assay: FBPase coupled assay, recombinant mouse FBP1 WT; type: biochemical
T2 sequence (Q9QXD6 1-338): T1 sequence (Q9QXD6 1-338 Y114F) with F114Y

[11C]-metformin microPET = type: in vivo, mouse; details: acute intravenous [11C]-metformin, WT vs KI mice
[3] = test system: FBP1^WT/WT (WT) and FBP1^G27P/G27P (KI) mice; assay: Metformin-euglycemic clamp; type: in vivo, mouse
mouse liver = assay: Liver adenine/Z nucleotides and metabolites after drug treatment; type: in vivo; details: 250 mg.kg^-1 p.o.
[4] = Metformin assay in plasma and tissues
rabbit muscle AMPD1 = assay: AMPD1 assay; type: biochemical; details: rabbit muscle AMPD1, up to 10 mM
[5] = rats, cited from earlier work
in vivo = details: mouse, plasma, po, 250 mg.kg^-1
isolated hepatocytes = details: lactate and pyruvate as sole carbon sources, 1 mM; cited from earlier work
HFD-fed WT and KI mice = assay: Metformin in high-fat diet; details: 250 mg.kg^-1 p.o., 2 h
[6] = random blood samples from diabetic subjects; cited from earlier work
[7] = end of clamp, 1.875 mg.kg^-1.min^-1 i.v.

SMILES: N#Cc1c(O)c2c(-c3ccc(-c4ccccc4O)cc3)csc2[nH]c1=O [A769662]
effect on glucose production (glucose production): no effect on glucose production

SMILES: NC(=O)c1ncn([C@@H]2O[C@H](CO)[C@@H](O)[C@H]2O)c1N [AICAR, 5-aminoimidazole-4-carboxamide-1-β-D-ribofuranoside]
phosphorylation of liver AMPK and ACC (AMPK; liver, WT and KI mice, AICAR 250 mg.kg^-1 i.p., 60 min): robustly stimulated
AMPKα T172 phosphorylation and activity in skeletal muscle (AMPK; skeletal muscle, both genotypes, AICAR 250 mg.kg^-1 i.p., 60 min): failed to increase
blood lactate levels ([1]; KI mice, t = 60 min): only modestly
plasma insulin levels ([1]; WT and KI mice, t = 60 min): no significant change
decrease in blood glucose levels ([1]; WT mice, fasted 16 h): ~ 60%
blood lactate levels ([1]; WT mice, t = 60 min): marked increase
plasma glucagon levels ([1]; WT mice, t = 60 min): increased
ZMP concentration in skeletal muscle, fold less compared to liver [2]: > 50 fold
[ZMP]:[ATP] ratio in skeletal muscle, fold less compared to liver [2]: > 150 fold

IC50 for F-2,6-P2 (mouse FBP1 Y114F): increased IC50
SMILES: O=P(O)(O)OC[C@H]1O[C@@](CO)(OP(=O)(O)O)[C@@H](O)[C@@H]1O [F-2,6-P2, fructose-2,6-bisphosphate]

fold less sensitive, mouse FBP1 compared to rat FBP1 (mouse FBP1 (WT); recombinant, in vitro): ~ 2 fold
SMILES: CC(C)Cc1sc(N)nc1-c1ccc(P(=O)(O)O)o1 [MB05032, 2-amino-5-isobutyl-4-[5-phosphono-2-furanyl]thiazole]

SMILES: CN([11CH3])C(=N)N=C(N)N [[^11C]-metformin]
kinetics and total metformin uptake in liver (PET) ([11C]-metformin microPET): comparable between WT and KI mice

liver metformin level ([4]; 250 mg.kg^-1 p.o., 1 h, comparable between genotypes): ~ 0.7 μmol.g^-1
liver metformin [4, 7]: ~ 0.8 μmol.g^-1
plasma metformin [4, 7]: ~ 170 μM
inhibition of AMP deaminase 1 (AMPD1) (rabbit muscle AMPD1): Neither does it appear to inhibit
concentration at 1 h (in vivo): 125 to 150 µM
SMILES: CN(C)C(=N)N=C(N)N [metformin, N,N-dimethylbiguanide]
glucose infusion rate (GIR) ([3]; 1.875 mg.kg^-1.min^-1 i.v., WT (and also KI) mice): failed to increase GIR significantly from baseline
suppression of EndoRa, gluconeogenesis and glycogenolysis ([3]; 3.75 mg.kg^-1.min^-1 i.v., KI mice): ablated
glucose infusion rate (GIR) ([3]; 3.75 mg.kg^-1.min^-1 i.v., KI mice, 120 min clamp): only a modest increase in GIR
suppression of endogenous glucose production (EndoRa) ([3]; 3.75 mg.kg^-1.min^-1 i.v., WT mice): ~ 20%
glucose infusion rate (GIR) ([3]; 3.75 mg.kg^-1.min^-1 i.v., WT mice, 120 min clamp): substantial increase in GIR
increase in glucose disposal rate (Rd) ([3]; 3.75 mg.kg^-1.min^-1 i.v., both WT and KI): 40-50%
direct inhibitory effect on FBP1 (mouse FBP1 (WT); purified mouse FBP1, up to 10 mM): does not have a direct inhibitory effect on FBP1 up to 10 mM
decrease in hepatic energy charge (mouse liver; both genotypes): ~ 10%
increase in hepatic [AMP]:[ATP] (mouse liver; both genotypes): ~ 2 fold
hepatic cAMP (mouse liver; HFD-fed mice, 2 h): no significant effect
phosphorylation of liver AMPK and ACC (AMPK; mouse, in vivo, po): robust increase
plasma metformin concentration ([5]; 50 mg.kg^-1 intravenously, 30 min after administration): ~ 74 μM
plasma metformin concentration ([5]; 100 mg.kg^-1): 345 µM
plasma metformin concentration ([5]; 250 mg.kg^-1): 1300 µM
reduction in intracellular ATP concentration (isolated hepatocytes): ~ 85%
decrease of blood glucose (HFD-fed WT and KI mice; HFD-fed KI mice): ~ 10%
reduction of blood glucose levels (HFD-fed WT and KI mice; HFD-fed WT mice): 30-40%
plasma metformin levels, upper end of range [6]: 868 µM
